Each structure is given as a SMILES string. pEC50: −log10 of the molar value.

In patent publication US8778954B2, “Phenylpyridine derivative and medicinal agent comprising same” (Kowa Company, Ltd., priority 2009, dated 2014) one finds inhibition and EC50 data, which are given here for eleven compounds.

The target in test [1] is T1, angiotensin II type 1 receptor (Oryctolagus cuniculus, UniProt P34976).
T1 construct: By using a specimen of isolated rabbit blood vessels; from tissue; host or cells: rabbit (New Zealand White) thoracic aorta ring
T1 sequence (P34976 1-359): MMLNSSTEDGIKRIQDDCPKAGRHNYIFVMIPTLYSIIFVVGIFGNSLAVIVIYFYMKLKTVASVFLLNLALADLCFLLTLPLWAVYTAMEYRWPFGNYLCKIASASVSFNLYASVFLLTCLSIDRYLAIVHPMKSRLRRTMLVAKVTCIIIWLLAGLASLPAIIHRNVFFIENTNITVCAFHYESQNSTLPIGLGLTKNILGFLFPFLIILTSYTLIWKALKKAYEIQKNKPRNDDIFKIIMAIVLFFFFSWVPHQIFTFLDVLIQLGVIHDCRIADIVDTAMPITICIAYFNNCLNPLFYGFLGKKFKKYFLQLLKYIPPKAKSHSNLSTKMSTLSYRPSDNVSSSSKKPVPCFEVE
In words: Angiotensin II receptor antagonistic activity in isolated rabbit blood vessels (thoracic aorta ring, angiotensin II-induced contraction). The class given is cell-based. The settings on record: 0.1 μM test compound, angiotensin II (10 nM)-induced contraction, read-out: Angiotensin II activity inhibitiom rate (%) at 0.1 μM concentration.
Protocol: By using a specimen of isolated rabbit blood vessels, antagonistic activity of the compounds of the invention against angiotensin II type 1 receptor was estimated from a dose-response curve of angiotensin II-induced blood vessel contraction. Specifically, the specimen of thoracic aorta ring of a rabbit (New Zealand White: male, 2.4 to 3.0 kg) was suspended in a magnus bath filled with Krebs-Henseleite buffer (composition: 118 mM NaCl, 4.7 mM KCl, 2.55 mM CaCl2, 1.18 mM MgSO4, 1.18 mM KH2PO4, 24.88 mM NaHCO3, and 11.1 mM D-glucose), and angiotensin II (10 nM)-induced contraction was obtained in the presence of the compounds of each test (1 nmol/L to 10 μmol/L). During the measurement, the inside temperature of the magnus bath was maintained at 37° C. and the bath was continuously ventilated with a sufficient amount of mixed gas (95% O2 and 5% CO2). The angiotensin II-induced contraction was converted into a relative value (%) that is based on the angiotensin II (0.1 μM)-induced contraction in the absence of the compounds of each example.

Test [2] concerns the target T2, human PPARγ2 (Homo sapiens, UniProt P37231).
T2 construct: the amino acids 182 to 505 of human PPARγ2; expressed in transfected cells; host or cells: COS7 cells (African green monkey kidney)
T2 sequence (P37231 182-505): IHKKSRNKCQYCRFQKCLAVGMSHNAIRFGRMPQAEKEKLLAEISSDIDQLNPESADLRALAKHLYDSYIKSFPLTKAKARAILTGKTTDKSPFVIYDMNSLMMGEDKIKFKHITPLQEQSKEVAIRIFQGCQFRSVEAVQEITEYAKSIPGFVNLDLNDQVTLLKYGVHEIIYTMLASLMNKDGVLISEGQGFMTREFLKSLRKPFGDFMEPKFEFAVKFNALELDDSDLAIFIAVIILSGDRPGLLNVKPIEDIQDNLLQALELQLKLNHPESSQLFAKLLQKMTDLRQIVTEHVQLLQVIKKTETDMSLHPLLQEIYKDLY
Put plainly: PPARγ activation activity, Gal4-PPARγ2 LBD luciferase transfection assay using COS7 cells. The class given is cell-based. The settings on record: Gal4-human PPARγ2 LBD chimera, 16 hours, rosiglitazone = 100%. The method, then:
The agonistic activity of the compounds of the invention on PPARγ was measured based on the transfection assay using COS7 cells (DS Pharma Biomedical Co., Ltd., Osaka, Japan), which are the cell line derived from the kidney of the African green monkey. COS7 cells were cultured under 5% CO2 concentration, and DMEM medium containing 10% fetal bovine serum, glutamic acid, and antibiotics was used as a medium.
As an expression vector, a chimera in which DNA binding domain of Gal4, which is a yeast transcription factor, and ligand binding domain of human PPARγ2 are fused, i.e., a fused product between the amino acids 1 to 147 of Gal4 transcription factor and the amino acids 182 to 505 of human PPARγ2, was used. Furthermore, as a reporter vector, a firefly luciferase containing five copies of Gal4 recognition sequence in the promoter region was used. Plasmid transfection to the cells was performed according to a method which uses jetPEI (trade name, manufactured by Funakoshi Co., Ltd., Tokyo, Japan). Furthermore, β-galactosidase expression vector was employed as an internal standard.
After the transfection of the cells, the medium was replaced with a DMEM medium (containing 1% serum) added with the test compound, and the cells were further cultured for 16 hours. After that, the luciferase activity and β-galactosidase activity in the cell lysis solution were measured.
For the present test, dimethyl sulfoxide (DMSO) was used for dissolution and dilution of the test compounds, and during the cell treatment, the DMSO concentration in DMEM medium (containing 1% serum) was adjusted to 0.1%. As a positive compound, rosiglitazone (trade name, manufactured by ALEXIS Corporation, Switzerland) was used. The luciferase activity (%) of the test compounds (1 to 30 μmol/L) was calculated when the luciferase activity of rosiglitazone (3 to 10 μmol/L) is 100% and the luciferase activity in the absence of the test compound is 0%. The 50% effective concentration of the test compound (EC50, 50% effect concentration) was calculated by using SAS Preclinical Package Ver 5.0 (trade name, manufactured by SAS institute Japan Co., Tokyo, Japan), which is a statistical analysis program.
EC50 values of these compounds are described in Table 2. […] Under the same condition, the PPARγ activation activity of telmisartan, i.e., EC50, was 1 to 5 μM.

On to `CCCCc1nc(C)n(-c2ncc(OC)cn2)c(=O)c1Cc1ccc(-c2ccccc2-c2nnn[nH]2)nc1` [Example 1, 5-{{6-[2-(1H-tetrazol-5-yl)phenyl]pyridin-3-yl}methyl}-6-butyl-3-(5-methoxypyrimidin-2-yl)-2-methylpyrimidin-4(3H)-one], for which the inhibition at 0.1 µM in test [1] came out at 100%. On the same count and under the same terms, with `CCCCc1nc(C)n(-c2ncc(OCC)cn2)c(=O)c1Cc1ccc(-c2ccccc2-c2nnn[nH]2)nc1` [Example 2, 5-{{6-[2-(1H-tetrazol-5-yl)phenyl]pyridin-3-yl}methyl}-6-butyl-3-(5-ethoxypyrimidin-2-yl)-2-methylpyrimidin-4(3H)-one] the figure was 90.8%. Still for that read-out and setting: with `CCCCc1nc(C)n(-c2ncc(OCCSC)cn2)c(=O)c1Cc1ccc(-c2ccccc2-c2nnn[nH]2)nc1` [Example 12, 5-{{6-[2-(1H-tetrazol-5-yl)phenyl]pyridin-3-yl}methyl}-6-butyl-2-methyl-3-{5-[2-(methylthio)ethoxy]pyrimidin-2-yl}pyrimidin-4(3H)-one] the figure was 100%. The same measure, in the same setting: as for `CCCCc1nc(C)n(-c2ncc(OCCS(C)(=O)=O)cn2)c(=O)c1Cc1ccc(-c2ccccc2-c2nnn[nH]2)nc1` [Example 13, 5-{{6-[2-(1H-tetrazol-5-yl)phenyl]pyridin-3-yl}methyl}-6-butyl-2-methyl-3-{5-[2-(methylsulfonyl)ethoxy]pyrimidin-2-yl}pyrimidin-4(3H)-one], the figure is 100%. Take `CCCCc1nc(C)n(-c2ccccn2)c(=O)c1Cc1ccc(-c2ccccc2-c2noc(=O)[nH]2)nc1` [Example 14, 3-{2-{5-{[4-butyl-2-methyl-6-oxo-1-(pyridin-2-yl)-1,6-dihydropyrimidin-5-yl]methyl}pyridin-2-yl}phenyl}-1,2,4-oxadiazol-5(4H)-one]: in test [1], the inhibition at 0.1 µM came out at 59.3%. With `CCCCc1nc(C)n(-c2cc(C)ccn2)c(=O)c1Cc1ccc(-c2ccccc2-c2noc(=O)[nH]2)nc1` [Example 15, 3-{2-{5-{[4-butyl-2-methyl-1-(4-methylpyridin-2-yl)-6-oxo-1,6-dihydropyrimidin-5-yl]methyl}pyridin-2-yl}phenyl}-1,2,4-oxadiazol-5(4H)-one], in test [1], the inhibition at 0.1 µM stood at 78.3%. The same compound had a negative-log EC50 (pEC50) in test [2] of 5.44.

For `CCCCc1nc(C)n(-c2ncc(OC)cn2)c(=O)c1Cc1ccc(-c2ccccc2-c2noc(=O)[nH]2)nc1` [Example 16, 3-{2-{5-{[4-butyl-1-(5-methoxypyrimidin-2-yl)-2-methyl-6-oxo-1,6-dihydropyrimidin-5-yl]methyl}pyridin-2-yl}phenyl}-1,2,4-oxadiazol-5(4H)-one], in test [1], the inhibition at 0.1 µM amounted to 72.9%. Consider `CCCCc1nc(C)n(-c2ncc(OCC)cn2)c(=O)c1Cc1ccc(-c2ccccc2-c2noc(=O)[nH]2)nc1` [Example 17, 3-{2-{5-{[4-butyl-1-(5-ethoxypyrimidin-2-yl)-2-methyl-6-oxo-1,6-dihydropyrimidin-5-yl]methyl}pyridin-2-yl}phenyl}-1,2,4-oxadiazol-5(4H)-one], for which, in test [1], the inhibition at 0.1 µM amounted to 52.1%. Further, in test [2], the negative-log EC50 (pEC50) was 5.51. Regarding `CCCCc1nc(C2CC2)n(-c2ncc(OC)cn2)c(=O)c1Cc1ccc(-c2ccccc2-c2noc(=O)[nH]2)nc1` [Example 22, 3-{2-{5-{[4-butyl-2-cyclopropyl-1-(5-methoxypyrimidin-2-yl)-6-oxo-1,6-dihydropyrimidin-5-yl]methyl}pyridin-2-yl}phenyl}-1,2,4-oxadiazol-5(4H)-one], the inhibition at 0.1 µM in test [1] came to 59.5%. In test [2], this compound gave a pEC50 of 5.81. As to `CCCCc1nc(C)n(-c2ncc(OCCSC)cn2)c(=O)c1Cc1ccc(-c2ccccc2-c2noc(=O)[nH]2)nc1` [Example 28, 3-{2-{5-{{4-butyl-2-methyl-1-{5-[2-(methylthio)ethoxy]pyrimidin-2-yl}-6-oxo-1,6-dihydropyrimidin-5-yl}methyl}pyridin-2-yl}phenyl}-1,2,4-oxadiazol-5(4H)-one], the inhibition at 0.1 µM in test [1] was determined as 86.5%. As to `CCCCc1nc(C)n(-c2ncc(OCCS(C)(=O)=O)cn2)c(=O)c1Cc1ccc(-c2ccccc2-c2noc(=O)[nH]2)nc1` [Example 29, 3-{2-{5-{{4-butyl-2-methyl-1-{5-[2-(methylsulfonyl)ethoxy]pyrimidin-2-yl}-6-oxo-1,6-dihydropyrimidin-5-yl}methyl}pyridin-2-yl}phenyl}-1,2,4-oxadiazol-5(4H)-one], the inhibition at 0.1 µM in test [1] came to 96.3%.
